Laboratory results published in patent publication US20130130986A1, “CANCER TREATMENT WITH RECOMBINANT VECTOR” (TOCAGEN INC., priority 2010, published 2013).
No end group written: not given here.

Legend:
[1] = system: Tu2449; assay: Thymosin combination therapy in Tu2449/B6C3F1 glioma mouse model, survival; format: in vivo; conditions: TA1 200 μg/kg IP SID 28 days added to suboptimal Toca511 (E3) and standard BID 5-FC, FIG. 10
Description: Experiments using Thymosin Alpha 1 were performed in conjunction with Toca 511 treatment in the Tu2449/B6C3F1 glioma mouse model (U. Pohle et al. Int J Oncol. 15:829-834 (1999); HM. Smilowitz et al. J. Neurosurg 106:652-659 2007). […] Thymosin Alpha 1 was obtained from Sigma Aldrich cat# T3641 and a stock solution made in sterile water at 400 μg/mL. TA1 (200 μg/kg, […]) was given IP starting on day 7 SID for 28 days.

[2] = system: U-87 cells; assay: yCD2 versus wild type yCD protein level in infected cells (FIG. 4); format: cell-based, human; conditions: infected U-87 cells

Molecule | survival rate [1] | CD protein level [2]
thymosin alpha 1 (Ac-SDAAVDTSSEITTKDLKEKKEVVEEAEN; listed as Homo sapiens) [Sigma Aldrich cat# T3641] | increased the survival rate to that of the optimal E5 dosing of Toca 511 | –
yCD2: human codon optimized yeast cytosine deaminase with substitutions A23L/V108I/I140L (protein, UniProt Q12178 1-158, looked up, variant A23L V108I I140L) Cytosine deaminase: MVTGGMASKWDQKGMDIAYEEALLGYKEGGVPIGGCLINNKDGSVLGRGHNMRFQKGSATLHGEISTLENCGRLEGKVYKDTTLYTTLSPCDMCTGAIIMYGIPRCVIGENVNFKSKGEKYLQTRGHEVVVVDDERCKKLMKQFIDERPQDWFEDIGE | – | higher levels
